Common to all, as to assay: relative viability (nuclei count vs DMSO), 5 days (fraction); higher = more cells survive
Compound in one test: CCN(CCO)CCCC(C)Nc1ccnc2cc(Cl)ccc12 [Hydroxychloroquine]
Summed up:
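In 1536-well plates, lung cancer cell lines rested overnight at 37 °C before five library-drug doses (not always all listed), √10 apart, were pinned onto vehicle-anchored plates. Nuclei were counted with MetaXpress from 4× Hoechst images taken after 5 days without medium change. Viability compares treated-well with vehicle-well nuclei as a median over plates, and plates needed control CV below 25% plus at least one doubling to pass.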

Compound in test [1]: CCN(CCO)CCCC(C)Nc1ccnc2cc(Cl)ccc12 [Hydroxychloroquine] + CC(=O)Nc1cccc(-n2c(=O)n(C3CC3)c(=O)c3c(Nc4ccc(I)cc4F)n(C)c(=O)c(C)c32)c1 [Trametinib] (partner 0.02 µM)
The method in brief:
(§1)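 Nuclei were stained with Hoechst during a one-step fixation (final 0.05% Triton X-100, 1% formaldehyde, 1 ug/ml Hoechst) carried out 5 days after dosing, then counted on 4× images. The cells, lung cancer lines in 1536-well plates, had been dosed by pin tool the day after seeding with one drug alone or a fixed anchor-drug dose plus five library-drug doses (not always all listed) in √10 steps. Relative viability is the nuclei count in treated wells divided by that in vehicle wells, and each value is the median of duplicate plates.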

Compound in test [2]: CCN(CCO)CCCC(C)Nc1ccnc2cc(Cl)ccc12 [Hydroxychloroquine] + Cc1cc(Nc2cc(N3CCN(C)CC3)nc(Sc3ccc(NC(=O)C4CC4)cc3)n2)n[nH]1 [Tozasertib] (partner 0.1 µM)
The method in brief:
as §1

Compound in test [3]: CCN(CCO)CCCC(C)Nc1ccnc2cc(Cl)ccc12 [Hydroxychloroquine] + NC(=O)Nc1cc(-c2cccc(F)c2)sc1C(=O)N[C@H]1CCCNC1 [AZD7762] (partner 0.2 µM)
Summed up:
as §1

Take NCI-H1651: the relative viability with Hydroxychloroquine (0.5 µM) was 0.974; with Hydroxychloroquine (1.581 µM), 0.981; in the test with Hydroxychloroquine (5 µM), 1; with Hydroxychloroquine (15.81 µM) it was 1.01; in the test with Hydroxychloroquine (50 µM) it was 1.1; in test [1] (first compound 0.5 µM) it was 0.832. Also, the relative viability in test [1] (first compound 1.581 µM) stood at 0.894; in test [1] (first compound 5 µM), 0.834; in test [1] (first compound 15.81 µM), 0.864; in test [1] (first compound 50 µM) it was 0.879; in test [2] (first compound 0.5 µM), 0.845; in test [2] (first compound 1.581 µM) it was 0.62. Moreover, the relative viability in test [2] (first compound 5 µM) is 0.762; in test [2] (first compound 15.81 µM), 0.65; in test [2] (first compound 50 µM), 0.714; in test [3] (first compound 0.5 µM) it was 0.501; in test [3] (first compound 1.581 µM), 0.585; in test [3] (first compound 5 µM) it was 0.47. For the same cell line, the relative viability amounted to 0.451 in test [3] (first compound 15.81 µM) and 0.457 in test [3] (first compound 50 µM).
NCI-H1734: the relative viability with Hydroxychloroquine (0.5 µM) was determined as 0.918; with Hydroxychloroquine (1.581 µM), 0.869; in the test with Hydroxychloroquine (5 µM) it was 0.989; with Hydroxychloroquine (15.81 µM), 0.942; in the test with Hydroxychloroquine (50 µM), 1.02; in test [1] (first compound 0.5 µM) it was 0.639. The relative viability is 0.604 in test [1] (first compound 1.581 µM); 0.645 in test [1] (first compound 5 µM); 0.668 in test [1] (first compound 15.81 µM); 0.699 in test [1] (first compound 50 µM); 0.276 in test [2] (first compound 0.5 µM); 0.297 in test [2] (first compound 1.581 µM). Further, the relative viability in test [2] (first compound 5 µM) was 0.274; in test [2] (first compound 15.81 µM), 0.245; in test [2] (first compound 50 µM), 0.31; in test [3] (first compound 0.5 µM), 0.62; in test [3] (first compound 1.581 µM), 0.562; in test [3] (first compound 5 µM), 0.649. Moreover, the relative viability in test [3] (first compound 15.81 µM) amounted to 0.644; in test [3] (first compound 50 µM) it was 0.622.
For NCI-H3122, the relative viability with Hydroxychloroquine (0.5 µM) stood at 0.999; in the test with Hydroxychloroquine (1.581 µM), 0.997; with Hydroxychloroquine (5 µM), 0.99; with Hydroxychloroquine (15.81 µM), 1.05; in the test with Hydroxychloroquine (50 µM) it was 1.06; in test [1] (first compound 0.5 µM) it was 0.19. The relative viability in test [1] (first compound 1.581 µM) amounted to 0.215; in test [1] (first compound 5 µM) it was 0.2; in test [1] (first compound 15.81 µM), 0.319; in test [1] (first compound 50 µM), 0.232; in test [2] (first compound 0.5 µM) it was 0.434; in test [2] (first compound 1.581 µM) it was 0.368. Further, the relative viability in test [2] (first compound 5 µM) was 0.397; in test [2] (first compound 15.81 µM), 0.456; in test [2] (first compound 50 µM) it was 0.505; in test [3] (first compound 0.5 µM) it was 0.956; in test [3] (first compound 1.581 µM), 0.976; in test [3] (first compound 5 µM) it was 1.06. The relative viability in test [3] (first compound 15.81 µM) was 0.993; in test [3] (first compound 50 µM) it was 1.13.
As for CAL-12T, the relative viability stood at 1.01 with Hydroxychloroquine (0.5 µM); 0.973 with Hydroxychloroquine (1.581 µM); 0.957 with Hydroxychloroquine (5 µM); 0.979 with Hydroxychloroquine (15.81 µM); 1.02 in the test with Hydroxychloroquine (50 µM); 0.268 in test [1] (first compound 0.5 µM). The relative viability in test [1] (first compound 1.581 µM) was found to be 0.265; in test [1] (first compound 5 µM) it was 0.326; in test [1] (first compound 15.81 µM), 0.338; in test [1] (first compound 50 µM), 0.32; in test [2] (first compound 0.5 µM) it was 0.342; in test [2] (first compound 1.581 µM), 0.276. The relative viability in test [2] (first compound 5 µM) is 0.336; in test [2] (first compound 15.81 µM), 0.296; in test [2] (first compound 50 µM), 0.378; in test [3] (first compound 0.5 µM), 0.571; in test [3] (first compound 1.581 µM), 0.804; in test [3] (first compound 5 µM) it was 0.596. Besides, the relative viability in test [3] (first compound 15.81 µM) turned out to be 0.599; in test [3] (first compound 50 µM), 0.659.
On to HCC-78, for which the relative viability was 1.04 in the test with Hydroxychloroquine (0.5 µM); 0.903 with Hydroxychloroquine (1.581 µM); 1.03 with Hydroxychloroquine (5 µM); 1.01 with Hydroxychloroquine (15.81 µM); 0.94 with Hydroxychloroquine (50 µM); 0.823 in test [1] (first compound 0.5 µM). Further, the relative viability in test [1] (first compound 1.581 µM) was determined as 0.834; in test [1] (first compound 5 µM) it was 0.878; in test [1] (first compound 15.81 µM) it was 0.752; in test [1] (first compound 50 µM) it was 0.904; in test [2] (first compound 0.5 µM) it was 0.438; in test [2] (first compound 1.581 µM), 0.459. Besides, the relative viability in test [2] (first compound 5 µM) turned out to be 0.478; in test [2] (first compound 15.81 µM) it was 0.305; in test [2] (first compound 50 µM) it was 0.466; in test [3] (first compound 0.5 µM) it was 0.595; in test [3] (first compound 1.581 µM), 0.754; in test [3] (first compound 5 µM), 0.605. Besides, the relative viability is 0.661 in test [3] (first compound 15.81 µM) and 0.641 in test [3] (first compound 50 µM).
Take NCI-H2085: the relative viability with Hydroxychloroquine (0.5 µM) came out at 1; in the test with Hydroxychloroquine (1.581 µM), 0.859; with Hydroxychloroquine (5 µM) it was 0.964; with Hydroxychloroquine (15.81 µM), 0.977; in the test with Hydroxychloroquine (50 µM) it was 0.989; in test [1] (first compound 0.5 µM), 0.7. The relative viability in test [1] (first compound 1.581 µM) came out at 0.527; in test [1] (first compound 5 µM), 0.619; in test [1] (first compound 15.81 µM) it was 0.518; in test [1] (first compound 50 µM), 0.53; in test [2] (first compound 0.5 µM), 0.858; in test [2] (first compound 1.581 µM) it was 0.828. The relative viability in test [2] (first compound 5 µM) is 0.799; in test [2] (first compound 15.81 µM), 0.813; in test [2] (first compound 50 µM), 0.884; in test [3] (first compound 0.5 µM), 1.03; in test [3] (first compound 1.581 µM), 0.933; in test [3] (first compound 5 µM), 0.922. The relative viability came to 0.927 in test [3] (first compound 15.81 µM) and 1.06 in test [3] (first compound 50 µM).

For the origin of these results see the supplement of paper PMC10307832.
